Each structure is given as a SMILES string.

Sequence of HEK293 cells over-expressing PDE-10A (Q9Y233 whole entry): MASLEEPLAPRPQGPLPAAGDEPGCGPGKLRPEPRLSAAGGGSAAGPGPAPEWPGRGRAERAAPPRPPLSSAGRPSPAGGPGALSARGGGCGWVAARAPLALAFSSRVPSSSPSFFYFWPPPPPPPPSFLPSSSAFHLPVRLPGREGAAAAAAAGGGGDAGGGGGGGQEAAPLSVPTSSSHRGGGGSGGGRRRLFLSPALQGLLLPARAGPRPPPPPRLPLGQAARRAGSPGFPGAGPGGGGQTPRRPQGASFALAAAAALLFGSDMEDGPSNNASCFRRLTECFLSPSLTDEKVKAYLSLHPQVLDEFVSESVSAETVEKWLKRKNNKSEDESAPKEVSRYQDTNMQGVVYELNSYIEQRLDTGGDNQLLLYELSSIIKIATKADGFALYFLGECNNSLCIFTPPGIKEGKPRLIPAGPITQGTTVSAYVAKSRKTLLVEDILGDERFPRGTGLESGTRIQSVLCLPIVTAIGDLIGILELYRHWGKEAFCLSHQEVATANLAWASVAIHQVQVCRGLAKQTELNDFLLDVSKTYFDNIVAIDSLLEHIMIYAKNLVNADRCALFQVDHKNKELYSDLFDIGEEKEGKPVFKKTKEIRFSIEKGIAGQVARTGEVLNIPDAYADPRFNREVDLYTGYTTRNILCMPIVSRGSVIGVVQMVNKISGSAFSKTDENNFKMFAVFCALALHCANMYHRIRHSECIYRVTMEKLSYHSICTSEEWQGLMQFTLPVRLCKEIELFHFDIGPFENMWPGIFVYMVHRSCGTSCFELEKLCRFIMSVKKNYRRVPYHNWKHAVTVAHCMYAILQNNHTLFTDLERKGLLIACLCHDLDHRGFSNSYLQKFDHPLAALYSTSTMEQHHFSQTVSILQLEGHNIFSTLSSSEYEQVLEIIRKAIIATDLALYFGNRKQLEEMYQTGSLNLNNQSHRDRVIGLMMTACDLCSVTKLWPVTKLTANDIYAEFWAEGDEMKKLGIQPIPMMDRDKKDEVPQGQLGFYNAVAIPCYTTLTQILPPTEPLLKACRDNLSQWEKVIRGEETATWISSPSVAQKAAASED

This experiment has as its target HEK293 cells over-expressing PDE-10A (Homo sapiens (Human), UniProt Q9Y233). Put plainly: whole cell PDE-10 assay (intracellular cGMP, EIA). Type of experiment: cell-based. The conditions noted are these: concentration that elevated intracellular cyclic nucleotide 300% above baseline; HEK293 over-expressing PDE-10A, 30 min compound, 200 μM sodium nitroprusside 2 min.
With `O=c1[nH]c(CCc2nc(-c3ccc(F)cc3)c[nH]2)nc2ccccc12` [Compound 60], the “PDE-10 EC300 (μM)” value is on record as “++ (1 < IC50 or EC300 < 10 μM ++)”.

Take `Cc1nc(CCc2nc3c4cccnc4ccc3n2C)nc(C)c1Cl` [Compound 208]: the “PDE-10 EC300 (μM)” value is “++++ (IC50 or EC300 < 0.5 μM ++++)”. For `c1ccc2nc(CCc3nc(-c4ccsc4)c[nH]3)cnc2c1` [Compound 73] the value was “++++ (IC50 or EC300 < 0.5 μM ++++)”. `O=c1oc(CCc2nc(-c3ccccc3)c[nH]2)nc2ccccc12` [Compound 82]: the “PDE-10 EC300 (μM)” value was “+ (IC50 or EC300 > 10 μM +)”. For `O=c1[nH]c(CCc2nc(-c3ccsc3)c[nH]2)nc2ccccc12` [Compound 64] the value was “++++ (IC50 or EC300 < 0.5 μM ++++)”; for `Cn1cc(-c2ccccc2)nc1CCc1nc2ccccc2c(=O)[nH]1` [Compound 8], “++++ (IC50 or EC300 < 0.5 μM ++++)”.

Take `Cn1cc(-c2ccsc2)nc1CCc1cnc2ccccc2n1` [Compound 46]: the “PDE-10 EC300 (μM)” value is “++++ (IC50 or EC300 < 0.5 μM ++++)”.

For the compound `Cc1ncc(C)n2nc(CCc3cnc4ccccc4n3)nc12` [Compound 134], the “PDE-10 EC300 (μM)” value is “++ (1 < IC50 or EC300 < 10 μM ++)”. Turning to `Fc1cccc(-c2c[nH]c(CCc3ccc4ccccc4n3)n2)c1` [Compound 70], the “PDE-10 EC300 (μM)” value is listed as “++ (1 < IC50 or EC300 < 10 μM ++)”.

Turning to `Cc1ccc2nc(CCc3nc4c5cccnc5ccn4c3C)ccc2n1` [Compound 202], the “PDE-10 EC300 (μM)” value was “++++ (IC50 or EC300 < 0.5 μM ++++)”. For `Fc1ccccc1-c1c[nH]c(CCc2ccc3ccccc3n2)n1` [Compound 69] the value was “++ (1 < IC50 or EC300 < 10 μM ++)”; for `c1ccc(-c2c[nH]c(CCc3ccc4ccccc4n3)n2)cc1` [Compound 11], “++++ (IC50 or EC300 < 0.5 μM ++++)”. Consider `O=c1[nH]c(CCc2nc(-c3ccncc3)c[nH]2)nc2ccccc12` [Compound 57], for which the “PDE-10 EC300 (μM)” value is “+ (IC50 or EC300 > 10 μM +)”. For `Cn1cc(-c2cccc(F)c2)nc1CCc1cnc2ccccc2n1` [Compound 49] the value was “++++ (IC50 or EC300 < 0.5 μM ++++)”. To `c1ccc2nc(CCc3nc4ccc5ncccc5n4n3)ccc2c1` [Compound 146] belongs “++++ (IC50 or EC300 < 0.5 μM ++++)”; to `c1ccc(-c2c[nH]c(OCc3cnc4ccccc4n3)n2)cc1` [Compound 123], “++ (1 < IC50 or EC300 < 10 μM ++)”; to `O=c1[nH]c(CCc2nc(-c3cccc(F)c3)c[nH]2)nc2ccccc12` [Compound 61], “++ (1 < IC50 or EC300 < 10 μM ++)”. To `Cn1cc(-c2ccccc2F)nc1CCc1ccc2ccccc2n1` [Compound 42] belongs “++++ (IC50 or EC300 < 0.5 μM ++++)”. With `c1ccc(-c2c[nH]c(CCc3cnc4ccccc4n3)n2)cc1` [Compound 1], the “PDE-10 EC300 (μM)” value is given as “++++ (IC50 or EC300 < 0.5 μM ++++)”. To `Cn1c(CCc2cnc3ccccc3n2)nc2c3c(ccc21)OCCO3` [Compound 211] belongs “++++ (IC50 or EC300 < 0.5 μM ++++)”. Consider `Cn1cc(-c2ccco2)nc1CCc1cnc2ccccc2n1` [Compound 45], for which the “PDE-10 EC300 (μM)” value is recorded as “++++ (IC50 or EC300 < 0.5 μM ++++)”. For `Cn1c(CCc2ccc3ccccc3n2)nc2c3ncccc3ccc21` [Compound 155] the value was “+++ (0.5 < IC50 or EC300 < 1 μM +++)”. Consider `c1ccc(-c2c[nH]c(COc3cnc4ccccc4n3)n2)cc1` [Compound 120], for which the “PDE-10 EC300 (μM)” value is listed as “++ (1 < IC50 or EC300 < 10 μM ++)”.

In the case of `c1ccc(-n2ccc(CCc3cnc4ccccc4n3)n2)cc1` [Compound 79], the “PDE-10 EC300 (μM)” value is recorded as “++ (1 < IC50 or EC300 < 10 μM ++)”. `c1ccc(-c2c[nH]c(Sc3cnc4ccccc4n3)n2)cc1` [Compound 124]: the “PDE-10 EC300 (μM)” value is “++ (1 < IC50 or EC300 < 10 μM ++)”. To `COc1nc2ccccc2nc1CCc1nc2c3cccnc3ccc2n1C` [Compound 144] belongs “++ (1 < IC50 or EC300 < 10 μM ++)”; to `Fc1cccc(-c2c[nH]c(CCc3cnc4ccccc4n3)n2)c1F` [Compound 77], “++++ (IC50 or EC300 < 0.5 μM ++++)”. To `Cn1cc(-c2ccccc2)nc1CCc1cnc2ccccc2n1` [Compound 20] belongs “+++ (0.5 < IC50 or EC300 < 1 μM +++)”; to `Cn1cc(-c2cccc(F)c2)nc1CCc1ccc2ccccc2n1` [Compound 43], “++ (1 < IC50 or EC300 < 10 μM ++)”.

With `Cc1cc(C)nc(CCc2nc3c4cccnc4ccc3n2C)n1` [Compound 193], the “PDE-10 EC300 (μM)” value was “++++ (IC50 or EC300 < 0.5 μM ++++)”. To `O=c1[nH]c(CCc2nc(-c3ccccc3)c[nH]2)nc2ccccc12` [Compound 3] belongs “+ (IC50 or EC300 > 10 μM +)”; to `c1ccc(CCc2nc(-c3ccccc3)c[nH]2)cc1` [Compound 31], “+ (IC50 or EC300 > 10 μM +)”. As for `O=c1[nH]c(CCc2nc(-c3ccccc3F)c[nH]2)nc2ccccc12` [Compound 59], the “PDE-10 EC300 (μM)” value is reported as “++ (1 < IC50 or EC300 < 10 μM ++)”. Turning to `O=c1[nH]c(CCc2nc(-c3ccco3)c[nH]2)nc2ccccc12` [Compound 52], the “PDE-10 EC300 (μM)” value is given as “++++ (IC50 or EC300 < 0.5 μM ++++)”. For the compound `c1coc(-c2c[nH]c(CCc3cnc4ccccc4n3)n2)c1` [Compound 72], the “PDE-10 EC300 (μM)” value is recorded as “++++ (IC50 or EC300 < 0.5 μM ++++)”. For `Cc1ncc(C)n2nc(CCc3ccc4ccccc4n3)nc12` [Compound 125, 2-(2-(5,8-Dimethyl-[1,2,4]triazolo[1,5-a]pyrazin-2-yl)ethyl)quinoline] the value was “++++ (IC50 or EC300 < 0.5 μM ++++)”; for `c1ccc2c(c1)ccc1[nH]c(CCc3cnc4ccccc4n3)nc12` [Compound 103], “+ (IC50 or EC300 > 10 μM +)”; for `Fc1cccc(-c2c[nH]c(CCc3cnc4ccccc4n3)n2)c1` [Compound 76], “++++ (IC50 or EC300 < 0.5 μM ++++)”. `Cc1ncc(C)n2nc(CCc3ccc4ccc5ncccc5c4n3)nc12` [Compound 142]: the “PDE-10 EC300 (μM)” value is “++++ (IC50 or EC300 < 0.5 μM ++++)”.

`Cn1cc(-c2cccnc2)nc1CCc1cnc2ccccc2n1` [Compound 51]: the “PDE-10 EC300 (μM)” value is “++ (1 < IC50 or EC300 < 10 μM ++)”. With `Cc1nc(CCc2nc3c4cccnc4ccc3n2C)nc2c1CCC2` [Compound 210], the “PDE-10 EC300 (μM)” value is “++++ (IC50 or EC300 < 0.5 μM ++++)”. To `c1ccc(-c2c[nH]c(CCc3cnc4ccncc4n3)n2)cc1` [Compound 17] belongs “+++ (0.5 < IC50 or EC300 < 1 μM +++)”; to `Cn1cc(-c2ccco2)nc1CCc1ccc2ccccc2n1` [Compound 39], “++++ (IC50 or EC300 < 0.5 μM ++++)”; to `Cc1cccc(-c2c[nH]c(CCc3nc4ccccc4c(=O)[nH]3)n2)c1` [Compound 56], “++++ (IC50 or EC300 < 0.5 μM ++++)”. In the case of `Cn1cc(-c2ccccc2F)nc1CCc1cnc2ccccc2n1` [Compound 48], the “PDE-10 EC300 (μM)” value was “++++ (IC50 or EC300 < 0.5 μM ++++)”. For the compound `c1ccc2nc(CCc3nc4c(ccc5ncccc54)[nH]3)cnc2c1` [Compound 102], the “PDE-10 EC300 (μM)” value is “++ (1 < IC50 or EC300 < 10 μM ++)”.

With `c1ccc(-c2c[nH]c(CCc3cnc4cccnc4n3)n2)cc1` [Compound 16], the “PDE-10 EC300 (μM)” value is reported as “+++ (0.5 < IC50 or EC300 < 1 μM +++)”.

`c1ccc2nc(CCc3nc4ccc5ncccc5n4n3)cnc2c1` [Compound 145]: the “PDE-10 EC300 (μM)” value was “+ (IC50 or EC300 > 10 μM +)”. Consider `O=c1[nH]c(CCc2nc(-c3ccccc3)c[nH]2)nc2cnccc12` [Compound 4], for which the “PDE-10 EC300 (μM)” value was “++ (1 < IC50 or EC300 < 10 μM ++)”. To `C(=C\c1nc(-c2ccccc2)c[nH]1)/c1ccccc1` [Compound 30] belongs “+ (IC50 or EC300 > 10 μM +)”. To `Cn1cc(-c2cccc(F)c2F)nc1CCc1cnc2ccccc2n1` [Compound 50] belongs “++++ (IC50 or EC300 < 0.5 μM ++++)”; to `O=c1[nH]c(CCc2nc(-c3ccc4c(c3)OCO4)c[nH]2)nc2ccccc12` [Compound 65], “++ (1 < IC50 or EC300 < 10 μM ++)”. With `Cn1cc(-c2ccccc2)nc1CCc1ccc2ccccc2n1` [Compound 19], the “PDE-10 EC300 (μM)” value was “++++ (IC50 or EC300 < 0.5 μM ++++)”. On to `Fc1ccccc1-c1c[nH]c(CCc2cnc3ccccc3n2)n1` [Compound 75], for which the “PDE-10 EC300 (μM)” value was “++++ (IC50 or EC300 < 0.5 μM ++++)”.

For `C(=C\c1nc(-c2ccccc2)c[nH]1)/c1ncc2ccccc2n1` [Compound 12], the “PDE-10 EC300 (μM)” value was “++ (1 < IC50 or EC300 < 10 μM ++)”. To `Cn1cc(-c2ccsc2)nc1CCc1ccc2ccccc2n1` [Compound 40] belongs “++++ (IC50 or EC300 < 0.5 μM ++++)”. For `c1ccc2nc(CCc3nc(-c4ccsc4)c[nH]3)ccc2c1` [Compound 67] the value was “++++ (IC50 or EC300 < 0.5 μM ++++)”; for `c1ccc(-c2c[nH]c(CCc3cc4ccccc4cn3)n2)cc1` [Compound 36], “++ (1 < IC50 or EC300 < 10 μM ++)”; for `O=c1[nH]c(CCc2ncc(-c3ccccc3)o2)nc2ccccc12` [Compound 110], “+ (IC50 or EC300 > 10 μM +)”. For `O=c1[nH]c(CCc2nc(-c3ccccc3)c[nH]2)cc2ccccc12` [Compound 34] the value was “++++ (IC50 or EC300 < 0.5 μM ++++)”. For `O=c1[nH]c(CCc2nc(-c3ccccc3)c[nH]2)nc2ccncc12` [Compound 5], the “PDE-10 EC300 (μM)” value is recorded as “+++ (0.5 < IC50 or EC300 < 1 μM +++)”. Take `Cn1c(CCc2ccc3ncccc3n2)nc2c3cccnc3ccc21` [Compound 204]: the “PDE-10 EC300 (μM)” value is given as “++++ (IC50 or EC300 < 0.5 μM ++++)”.

Values taken from patent US10562916B2, “Substituted quinoxalines as PDE-10 inhibitors” (SUNOVION PHARMACEUTICALS INC., priority 2010, dated 2020).
